Source: patent publication US5977144A (priority 1997, dated 1999)
Entries after “also recorded” stand apart in the source; their conditions may differ. Read-outs that look alike come from different tables or passages of the source.

Assays:
[1] = target: alpha7 receptor (high affinity alpha-bungarotoxin binding, rat brain membranes) (Rattus norvegicus, UniProt Q05941); assay: biochemical; settings: for IC50: rat brain membranes, read-out: IC50, [125I]α-bungarotoxin binding
[2] = target: T1, alpha4beta2 receptor (cytisine binding, rat brain membranes) (Rattus norvegicus, UniProt P09483+P12390); assay: biochemical; settings: 1 μM (Table 2); read-out: alpha4beta2 binding: % inhibition of cytistine binding
T1 construct: from tissue; host or cells: rat brain membranes
T1 sequence (P09483 31-630): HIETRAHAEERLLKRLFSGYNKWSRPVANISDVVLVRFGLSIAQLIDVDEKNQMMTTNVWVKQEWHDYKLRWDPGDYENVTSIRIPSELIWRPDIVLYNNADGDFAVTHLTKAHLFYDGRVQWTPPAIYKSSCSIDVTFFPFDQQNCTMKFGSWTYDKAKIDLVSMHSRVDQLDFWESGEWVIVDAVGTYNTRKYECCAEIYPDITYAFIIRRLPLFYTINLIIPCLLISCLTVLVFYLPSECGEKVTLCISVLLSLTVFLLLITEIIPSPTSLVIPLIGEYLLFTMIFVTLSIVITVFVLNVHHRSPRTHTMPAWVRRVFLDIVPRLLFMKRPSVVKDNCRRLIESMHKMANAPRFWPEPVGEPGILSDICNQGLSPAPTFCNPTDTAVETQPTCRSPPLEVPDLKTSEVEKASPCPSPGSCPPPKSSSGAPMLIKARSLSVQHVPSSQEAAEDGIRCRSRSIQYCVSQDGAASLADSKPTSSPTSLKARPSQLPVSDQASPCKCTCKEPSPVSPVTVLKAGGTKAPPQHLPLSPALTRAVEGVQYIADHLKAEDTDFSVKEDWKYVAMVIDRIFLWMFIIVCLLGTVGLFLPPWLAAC
T1 sequence (P12390 25-500): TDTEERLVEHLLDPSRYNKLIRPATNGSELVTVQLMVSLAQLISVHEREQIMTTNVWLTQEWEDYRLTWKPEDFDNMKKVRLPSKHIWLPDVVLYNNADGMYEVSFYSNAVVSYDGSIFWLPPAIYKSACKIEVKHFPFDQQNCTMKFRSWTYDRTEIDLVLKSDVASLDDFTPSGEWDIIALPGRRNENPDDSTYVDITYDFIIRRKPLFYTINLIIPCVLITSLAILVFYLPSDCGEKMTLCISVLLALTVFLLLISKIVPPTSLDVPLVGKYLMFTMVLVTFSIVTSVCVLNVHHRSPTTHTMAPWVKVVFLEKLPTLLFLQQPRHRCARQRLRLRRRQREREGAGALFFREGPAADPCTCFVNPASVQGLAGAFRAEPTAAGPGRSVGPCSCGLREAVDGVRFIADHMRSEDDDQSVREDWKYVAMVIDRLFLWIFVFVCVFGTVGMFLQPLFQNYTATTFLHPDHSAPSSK
Source text: Further, the cinnamylidene-anabaseines displaced high affinity cytisine binding to rat brain membranes with lower affinity than other types of benzylidene-anabaseines. These observations are consistent with the cinnamylidene-anabaseines having some selectivity for alpha7 receptor subtypes over other types of nicotinic receptors, especially alpha4beta2 receptors, based on the types of receptors to which alpha-bungarotoxin and cytisine bind to in brain.

rat alpha7 receptor [3] = target: T2, rat alpha7 receptor (Rattus norvegicus, UniProt Q05941); assay: cell-based; settings: for α7 receptor activation (in words): oocyte expression system; for EC50: oocytes, read-out: α7 EC50
T2 sequence (Q05941 23-502): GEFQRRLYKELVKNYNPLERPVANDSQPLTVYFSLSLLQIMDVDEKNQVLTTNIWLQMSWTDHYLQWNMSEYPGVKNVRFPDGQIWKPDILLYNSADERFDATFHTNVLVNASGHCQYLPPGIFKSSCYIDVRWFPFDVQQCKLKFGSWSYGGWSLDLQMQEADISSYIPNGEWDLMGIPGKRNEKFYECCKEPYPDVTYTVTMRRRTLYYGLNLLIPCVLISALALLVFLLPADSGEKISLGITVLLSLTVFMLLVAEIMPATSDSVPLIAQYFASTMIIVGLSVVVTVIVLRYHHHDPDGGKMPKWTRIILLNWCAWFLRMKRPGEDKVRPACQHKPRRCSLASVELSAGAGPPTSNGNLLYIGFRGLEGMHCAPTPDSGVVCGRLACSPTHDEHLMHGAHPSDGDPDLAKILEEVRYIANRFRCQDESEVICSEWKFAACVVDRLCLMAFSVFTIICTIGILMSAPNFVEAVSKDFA
Protocol: FIG. 13A. Effects of chronic injections of DMXB or nicotine on high affinity [^3 H]ACh or [^125 I]α-bungarotoxin (BTX) binding in rat neocortices. Adult male rats were injected with saline vehicle, 1 mg/kg DMXB or 0.2 mg/kg nicotine (NIC) (IP) daily for 2 weeks. At that time, neocortices were removed and assayed for high affinity [^3 H]ACh or [^125 I]α-bungarotoxin binding as described in the text. […] Responses of rat α7 ACHR to 3-CA, 2-MeOCA and 4-MeOCA. Concentration-response relationships for the peak agonist activated currents of oocytes injected with RNA coding for the rat α7 subunit. All responses were initially measured relative to the individual oocyte-response to 500 μM ACh, applied 5 min prior to drug-application. Responses were normalized relative to the maximum response obtainable with ACh so that a response of 1 represents full efficacy. The ratio of 500 μM ACh control response to ACh maximum was taken from Papke et al., 1997.
(§1) Oocytes were prepared and recordings made as described previously (de Fiebre, et al., 1995). Frogs were anesthetized by submersion in 0.1% (3)-aminobenzoic acid ethyl ester and several lobes of the ovary surgically removed through a small incision in the abdomen wall. Oocytes were freed from the follicle cells by treatment with collagenase (in calcium-free Barth's solution: 88 mM NaCl, 1 mM KCl, 15 mM Hepes pH 7.6, 0.33 mM MgSO4, 0.1 mg/ml gentamicin sulfate) for 2 hr at room temperature and Stage 5 oocytes were isolated. Oocytes were rinsed and stored at 18° C. in Barth's saline (88 mM NaCl, 1 mM KCl, 15 mM Hepes pH 7.6, 0.3 mM Ca(NO3)2, 0.41 mM CaCl2, 0.82 mM MgSO4, 0.1 mg/ml gentamicin sulfate) before and after microinjection with RNA. Microinjection was conducted with a Drummond Scientific "Nanoject Variable" automatic injector. Oocytes were injected with a 50 nl solution of specified rat nicotinic subunit mRNA species (2-10 mg/ml; derived from the cDNA containing HIP 306 plasmid kindly provided by Dr. Jim Boulter, Salk Institute) and incubated 2-7 days at 18° C. before electrophysiological recording. electrophysiological recordings, oocytes were perfused in a Warner Instruments RC-8 recording chamber with a perfusion solution containing 115 mM NaCl, 2.5 mM KCl, 10 mM Hepes pH 7.2, 1.8 mM CaCl2 and 1 μM atropine to block muscarinic responses. Perfusion was continuous at a rate of 10 ml/min. Drags were diluted in perfusion solution and applied using a solenoid valve to switch from perfusion to drug solutions. Current responses to drug administration were studied under two electrode voltage clamp at a holding potential of -70 mV using a Dagan Corp. TEV-200 voltage clamp connected to a 386-SX IBM computer using a TL-1 DMA interface (Axon Instruments). Micropipettes were filled with 3 M KCl and had resistances of 0.5-2 MOhms. Drug responses are analyzed with PClamp software (Axon Instruments). Oocytes with resting potentials of less than -30 mV were rejected.

rat alpha4beta2 receptor [4] = target: T3, rat alpha4beta2 receptor (Rattus norvegicus, UniProt P09483+P12390); assay: Activation of alpha4beta2 receptors expressed in Xenopus oocytes; assay type: cell-based; settings: Table 4; read-out: Oocytes Agonist α4
T3 sequence (P09483 31-630): as the sequence (P09483 31-630) above
T3 sequence (P12390 25-500): as the sequence (P12390 25-500) above
Protocol: FIG. 14A. Responses of α4β2 ACHR to 3-CA, 2-MeOCA or 4-MeOCA. Concentration-response relationships for the peak agonist activated currents of oocytes injected with RNA coding for rat α4β2 subunits. Responses are first expressed relative to the response to 10 μM ACh, applied 5 min before drug-application, then normalized to the maximum response obtainable with ACh so that a response of 1 represents full efficacy. The ratio between 10 μM ACh and maximum ACh response was determined in separate experiments.
as §1

rat alpha7 receptor [5] = target: T2, rat alpha7 receptor; assay: cell-based; set-up: Oocytes Antagonist: unit not given here; settings: for IC50: ACh applied 5 min after compound, read-out: IC50, antagonism subsequent to agonist activity; for Oocytes Antagonist: Table 4; for alpha 7 antagonism: % of antagonism of acetylcholine administered after drug: xenopus oocytes
Protocol: FIG. 13B. Effects of chronic injections of DMXB or nicotine on high affinity [^3 H]ACh or [^125 I]α-bungarotoxin (BTX) binding in rat neocortices. Adult male rats were injected with saline vehicle, 1 mg/kg DMXB or 0.2 mg/kg nicotine (NIC) (IP) daily for 2 weeks. At that time, neocortices were removed and assayed for high affinity [^3 H]ACh or [^125 I]α-bungarotoxin binding as described in the text. […] Responses of rat α7 AChR to 3-CA, 2-MeOCA and 4-MeOCA. […] All responses are expressed relative to the oocyte-response to 500 μM ACh applied 5 min prior to the experimental agonist application.
as §1
(§2) Antagonist properties subsequent to agonist activity were measured as a decrease in responsiveness to ACh applied 5 min after compound-application, normalized to ACh application instead of the anabaseine-derivative (FIG. 13A AND FIG. 13B).

rat alpha4beta2 receptor [6] = target: T3, rat alpha4beta2 receptor; assay: Antagonism of alpha4beta2 receptors in oocytes (residual inhibition of ACh response after drug); assay type: cell-based; settings: xenopus oocytes
Protocol: as §1, with “Micropipettes were filled with 3 M KCl and had resistances of 0.5-2 MOhms.” left out, “Oocytes with resting potentials of less than -30 mV were rejected.” left out
as §2

PC12 cells [7] = assay type: cell-based; settings: for neurite protection during NGF-deprivation (in words): 10 μM; for Neurite Counts: 10 μM (NGF 100 ng/ml), 4 days after removal of serum and NGF, mean±SEM, * p<0.05
Protocol: PC12 cell-culture methods were modified from Greene and Tischler (1976). Cells were plated at 30-40% confluence and grown in Dulbecco's Modified Eagle Medium containing 10% heat-inactivated horse serum, 5% fetal bovine serum, 100 units/ml penicillin, 100 μg/ml streptomycin and 0.5 mM 1-glutamine. Cultures were maintained at 37° C., […] /6% CO2 and 90-92% humidity in culture plates pre-coated with poly-1lysine (10 g/L). Cultures were maintained for 7 days in serum-supplemented medium to which 100 ng/ml rat 2.5S NGF was added at day 1. On day 7, conditioned medium was replaced serum-free medium containing specified drugs. Four days later, cell density was estimated using the NIH Image program version 1.47 and number of neurite-expressing cells counted manually in blind fashion as described previously (Martin et al., 1994). A Nikon inverted microscope (100× magnification) was attached to a Mac II computer via a monochrome video camera (Cohu, Inc., San Diego, Calif.). Four random areas were counted per plate and there were 4 plates per treatment group, unless otherwise indicated. Neurites were defined as processes at least 2× the length of the perikaryon. To assess the reliability of the image analyses, a reticle was used for direct quantification of cells in the same view as the one analyzed in random samples.
PC12 cells were differentiated for 1 week with NGF. Drugs were administered for the 4 day interval after removal of serum and NGF. Neuites were counted and expressed as the mean±SEM of at least 3 plates/group.

rat alpha4beta2 receptor [8] = target: T3, rat alpha4beta2 receptor; assay: Activation of alpha4beta2 receptors expressed in Xenopus oocytes; assay type: cell-based; settings: read-out: alpha4beta2 activation: % response observed with 10 μM acetylcholine
PC12 cells [9] = assay type: cell-based; settings: Table 4
rat alpha7 receptor [10] = target: T2, rat alpha7 receptor; settings: cited from earlier work
rat alpha7 receptor [11] = target: T2, rat alpha7 receptor; settings: literature; cited from earlier work
[12] = test system: animal models of learning and memory; settings: animals; cited from earlier work
[13] = test system: alpha7 nicotinic receptors
[14] = test system: cholinesterase-staining cells in the nucleus basalis; settings: rat, in vivo
Protocol: Passive avoidance behavior was measured in nucleus basalis lesioned rats after intraperitoneal (IP) injections of drugs (base weight) or 0.9% saline diluent. For lesions, male 5 month old Sprague Dawley rats were anesthetized with 30 mg/kg sodium pentobarbital (IP) and then infused bilaterally with 1 μl of 5 μg/μl ibotenic acid in phosphate buffered saline, pH 7.4, into the nucleus basalis as described previously (17). Infusion coordinates were anterior 7.0 mm, lateral 2.6 mm and vertical 6.5 mm according to Paxinos and Watson (Paxinos and Watson, 1986).
Histological assessments of the ibotenic acid placements in the nucleus basalis were made after behavioral measurements, using cholinesterase staining in formalin-fixed tissues.

[15] = 1 μM (Table 2), read-out: alpha7 binding: % inhibition of alphabungarotoxin binding
[16] = Table 4, read-out: Receptor Binding α7
[17] = Table 4, read-out: Oocytes Agonist α7
[18] = read-out: alpha7 activation: % response observed with 500 μM acetylcholine

Chain of alpha7 receptor (high affinity alpha-bungarotoxin binding, rat brain membranes) (Q05941 23-502): as the sequence (Q05941 23-502) above

SMILES | inhibition at 1 µM [1, 15] [%] | inhibition at 1 µM [1, 16] [%] | IC50 [1] [µM] | inhibition at 1 µM [2] [%] | selectivity α7 over α4β2 (in words) (rat alpha7 receptor [3]) | Emax (rat alpha7 receptor [3]; [17]) [%] | α7 receptor activation (in words) (rat alpha7 receptor [3]) | EC50 (rat alpha7 receptor [3]) [µM] | Emax (rat alpha7 receptor [3]; [18]) [%] | Emax (rat alpha4beta2 receptor [4]) [%] | IC50 (rat alpha7 receptor [5]) [µM] | Oocytes Antagonist (rat alpha7 receptor [5]) | alpha 7 antagonism: % of antagonism of acetylcholine administered after drug (rat alpha7 receptor [5]) | alpha4beta2 antagonism: % of antagonism of acetylcholine administered after drug (rat alpha4beta2 receptor [6]) | neurite protection during NGF-deprivation (in words) (PC12 cells [7]) | Neurite Counts (PC12 cells [7]) | Emax (rat alpha4beta2 receptor [8]) [%] | also measured
C(=C\c1ccccc1)/C=C1\CCCN=C1c1cccnc1 [3-CA, E,E-3-(Cinnamylidene)anabaseine] | 94.7 | 94.7 | 0.08 | 6.2 | selectively activate α7 receptors over α4β2 | 92 | fully efficaciously | 3.2 ± 0.7 | 92 | 2.6 | 15 ± 6 | .50 | 45 | 10 | neuroprotective against neurite-loss during NGF-deprivation; also recorded: protected against NGF-deprivation neurite loss; also recorded: exhibited cytoprotective activity; also recorded: effective | 185 ± 19 | < 3 | inhibition of α7 receptors, estimated (rat alpha7 receptor [5]; 10 μM, estimated from oocyte results): less than 20%; inhibition at 10 µM (rat alpha7 receptor [5]; 10 μM, ACh application 5 min later, read-out: long term inhibition of α7 receptors): < 20%; PC12 Cyto. (PC12 cells [9]): +?
COc1ccc(/C=C/C=C2\CCCN=C2c2cccnc2)cc1 [4-MeOCA, E,E-3-(4-Methoxycinnamylidene)anabaseine] | 94.1 | 94.1 | 0.054 | 32 | selectively activate α7 receptors over α4β2 | 45 | fully efficaciously | 15.9 ± 7.9 | 45 | < 5 | 5 ± 2.3 | .104 | 75 | 34 | Neither 2-MeOCA nor 4-MeOCA elicited neurite-protection | 155 ± 23 | < 2 | times less potent (α7 activation) (rat alpha7 receptor [3]): 2-3 times
CN(C)c1ccc(/C=C/C=C2\CCCN=C2c2cccnc2)cc1 [DMAC, E,E-3-(4-dimethylaminocinnamylidene) anabaseine] | – | – | – | – | – | – | – | – | – | – | – | – | – | – | – | – | – | α7 agonist activity (in words) (rat alpha7 receptor [10]; background/literature): fully efficacious and potent α7 agonist; selectivity α7 over α4β2 / other nicotinic subtypes (in words) (rat alpha7 receptor [10]; literature): selectively activate α7 receptors over α4β2; long term inhibition / antagonism of α7 receptors (in words) (rat alpha7 receptor [11]): long term inhibition of α7 receptors following activation; also recorded: potent antagonist activity; memory-related performance (in words) [12]: memory-enhancing activity in rodents; also recorded: effective in this behavioral paradigm
CCO [ethanol] | – | – | – | – | – | – | – | – | – | – | – | – | – | – | – | – | – | antagonism of nicotinic receptors by ethanol (in words) [13]: alpha7 nicotinic receptors were sensitive to antagonism by ethanol while other receptor types were not affected
N[C@H](C(=O)O)c1cc(=O)[nH]o1 [ibotenic acid] | – | – | – | – | – | – | – | – | – | – | – | – | – | – | – | – | – | reduction of cholinesterase-staining cells in nucleus basalis [14]: over 80%
